Assays:
Type in all cases: in vivo
[1] = system: CREB, BDNF and trkB genes; test: Oligonucleotide microarray gene expression in cerebral frontal cortex; conditions: depression-induced animal
Description: Total RNA was isolated from the cerebral frontal cortex, and double-stranded cDNA was synthesized using the isolated RNA and an oligo (dT) 24-T7 primer. cRNA was synthesized by in vitro transcription using the synthesized cDNA, and was biotin-labeled and applied to an oligonucleotide microarray to determine gene expression patterns in each test group.

[2] = system: 5-HT and NE neurotransmitters; test: 5-HT and NE levels in chronic CMS model by microdialysis and HPLC-ECD
Method: Also, according to a biochemical method, the therapeutic efficacy of a candidate drug was primarily examined by measuring changes in 5-HT and Norepinephrine (NE) levels in a chronic CMS model by microdialysis and HPLC-ECD. Catecholamine content was measured using an HPLC system equipped with an electrochemical detector. A mobile phase containing 0.05 M monobasic sodium phosphate, 0.1 N sodium acetic acetate and 1% methanol was adjusted to pH 4.4 with a phosphate buffer for HPLC. […] was composed of a Supelcosil LC-8-DB 3-μm column (150×4.6 mm, Supelco, Bellefonte, Pa.) protected by an LC-18 guard column.

[3] = system: CREB, BDNF and trkB proteins; test: Western blotting of CREB, BDNF and trkB proteins in rat cerebral frontal cortex
Method: Thirdly, an increase in the antidepressive markers, CREB, BDNF and trkB proteins, was examined in the rat cerebral frontal cortex by Western blotting, as follows. A behavioral test in rats was carried out for a period of three weeks, and the rats were administered with each drug. The brain frontal cortex was excised and centrifuged, and the supernatant was recovered. Each sample was mixed with a SDS-PAGE sample buffer to reduce proteins and boiled to denature proteins. Samples were loaded onto a SDS-PAGE (sodium dodecyl sulfate poly acrylamide gel electrophoresis) gel and run at 100-200 V for about 1-2 hrs. The SDS-PAGE gel was transferred onto a PVDF or nitrocellulose membrane by electro-transferation. The membrane was incubated with a primary antibody for a target protein, washed and incubated with a secondary antibody. Then, the target protein was detected by an enhanced chemiluminescent method.

[4] = system: CREB, BDNF and trkB proteins; test: 2-DE of CREB, BDNF and trkB proteins in rat cerebral frontal cortex
Method: Fourthly, an increase in the antidepressive markers, CREB, BDNF and trkB proteins, was examined in the rat cerebral frontal cortex by 2-DE, as follows. A behavioral test in rats was carried out for a period of three weeks, and the rats were administered with each drug. The brain frontal cortex was excised and centrifuged, and the supernatant was recovered. Each sample was mixed with an IEF sample buffer and loaded onto an IEF gel. Proteins were separated according to isoelectric point by isoelectric focusing (IEF) in the first dimension and according to molecular weight by SDS-PAGE at 100-200 V for about 1-2 hrs in the second dimension. The gel was stained by a Gel-Code Blue staining method and evaluated for elevated or newly emerged proteins by the antidepressive substances. The elevated or newly emerged proteins by the antidepressive substances were subjected to mass spectrometry.

cortisol = test: Urinary cortisol concentration (125I-cortisol assay) in rats; conditions: rat urine
Method: First, changes in concentrations of cortisol, which is a representative marker to determine whether the immune suppression has been overcome, according to administration of the Nelumbinis Semen extract were examined, as follows. After urine samples were collected from rats,
(1) 1.0 ml of urine was placed into a tube with a cap, 2.0 ml dichloromethane was added to the tube, and the tube was covered with the cap with caution;
(2) the mixture was vortexed for 5-10 min;
(3) the mixture was centrifuged at 1500×g (rpm), the upper layer was aspirated, and 50 μl of the lower layer were aliquotted into coated tubes;
(4) samples were evaporated for dryness.
Urinary cortisol concentrations were measured as follows.
(1) The coated tubes were individually labeled with NSB, Std (A-F), a control (CON6 No. 5) and sample numbers (for NSB, a green tube was used).
(2) 25 μl of each of NSB, Std(A-F), a control (CON6 No. 5) and samples was added to the corresponding tube (free cortisol was added to the completely dried coated tube, and 25 μl of Std. A was added to the NSB tube).
(3) 1.0 ml of ^125I-cortisol was added to the tubes, followed by mixing.
(4) The tubes were incubated in a water bath at 37° C. for 45 min and aspirated.
(5) After the content of the tubes was completely aspirated, radioactivity was measured for at least 1 min using a […].

IL-2 = test: Blood IL-2 concentration (luminometric immunoassay) in rats; conditions: rat blood
Method: (1) 100 μl of assay diluent QD6-23 were aliquotted onto a microplate strip;
(2) 50 μl of each sample and a standard were aliquotted onto the strip;
(3) the strip was incubated with shaking at room temperature for 2 hrs;
(4) the strip was washed four times;
(5) 200 μl of an IL-2 conjugate was aliquotted onto the strip, and the strip was incubated with shaking at room temperature for 3 hrs;
(6) 200 μl of a substrate (luminol+hydrogen peroxide) was aliquotted onto the strip, and the strip was incubated at room temperature for 20-40 min;
(7) emitted light was measured using a luminometer; and
(8) IL-2 concentrations were determined using a standard quantitative curve.

WBC = WBC counting in rat blood (volume, conductivity, light scattering)
Method: Thirdly, changes in WBC cell number, which is a representative marker to determine whether the immune suppression has been overcome, according to administration of the Nelumbinis Semen extract, was examined, as follows. After blood samples were collected from rats, cell volume, conductivity and light scattering were measured.
Cell volume was measured according to the Coulter Principle, which is universally recognized as a reference method for sizing of volumes. An aperture between two electrodes is placed in a cell flow, and direct current flows between the electrodes. When WBC maintained at nearly natural states passes through the aperture, electrical resistance to the direct current flow increases, thus generating a voltage pulse being in proportion to cell volumes. The size of the pulse is one of the distinct features allowing determination of the type of WBC. However, to distinguish between two types of cells with similar size, a different phenotype allowing the distinction of two types of cells should be measured. For example, mature basophils and small lymphocytes are about 9-12 jjm in diameter, and immature prolymphocytes and mature neutrophils are 12-14 μm in diameter. Different types of cells with similar size are difficult to determine based on only their size, and thus, in this case, conductivity and light scattering are simultaneously measured. […]

lymphocytes = test: Lymphocyte cell number in rat blood (automatic analyzer)
Description: Fourthly, changes in cell number of lymphocytes, which is a representative marker to determine whether the immune suppression has been overcome, according to administration of the Nelumbinis Semen extract, was examined as follows. After blood samples were collected from rats, changes in lymphocyte cell number were examined by the following method.
When diluted blood corpuscles are suspended in an electrolyte solution (Isoton sol.) that is a separate […], the electrolyte suspension of particles is suctioned for 4 sec through an aperture with a predetermined size. The aperture is placed between an internal electrode and an external electrode, and a current flows between the electrodes. When particles pass through the aperture between the two electrodes, resistance increases while voltage decreases. The difference between decreased voltage and ground voltage is expressed as height by a threshold circuit. The number of pulses indicates the number of particles, and the amplitude of pulses is in proportion to the volume of corpulscles.
2. Assay Method: Automatic Analyzer
3. Machine Used: ADVIA120, Bayer, USA

SMILES: CNCCC(Oc1ccc(C(F)(F)F)cc1)c1ccccc1 (stereo not drawn) [Prozac, fluoxetine]
- expression level of BDNF gene [1]: significantly increase
- expression level of CREB gene [1]: significantly increase
- expression level of trkB gene [1]: significantly increase
- level of 5-HT [2]: significantly increase
- level of NE [2]: significantly increase
- protein level of BDNF [3]: significantly increase
- protein level of CREB [3]: significantly increase
- protein level of trkB [3]: significantly increase
- protein level of BDNF [4]: significantly increase
- protein level of CREB [4]: significantly increase
- protein level of trkB [4]: significantly increase
- cortisol concentrations (cortisol): levels similar to a normal group
- IL-2 concentrations (IL-2): levels similar to a normal group
- cell number of WBC (WBC): levels similar to a normal group
- cell number of lymphocytes (lymphocytes): levels similar to a normal group

— US7504117B2, “Extract of Nelumbinis Semen for the treatment of depression” (Purimed Co., Ltd., priority 2003, dated 2009)
